Laboratory results reported in the Kinase Knowledgebase extract (Sharma et al. 2016).

Tests used:
[1] = target: PIK3CA (human) (UniProt P42336); experiment: Inhibition of PIK3CA Kinase Activity
[2] = target: PIK3CG (human) (UniProt P48736); experiment: Inhibition of PIK3CG Kinase Activity
[3] = target: PIK3CB (Human) (UniProt P42338); experiment: Inhibition of PIK3CB Kinase Activity
[4] = target: PIK3CD (Human) (UniProt O00329); experiment: Assessment of Elastase Exocytosis From Neutrophils
[5] = target: PIK3CD (Human) (UniProt O00329); experiment: Assessment of Human B Lymphocyte Function; conditions: b cells

PIK3CB (Human), sequence (P42338 whole entry, looked up): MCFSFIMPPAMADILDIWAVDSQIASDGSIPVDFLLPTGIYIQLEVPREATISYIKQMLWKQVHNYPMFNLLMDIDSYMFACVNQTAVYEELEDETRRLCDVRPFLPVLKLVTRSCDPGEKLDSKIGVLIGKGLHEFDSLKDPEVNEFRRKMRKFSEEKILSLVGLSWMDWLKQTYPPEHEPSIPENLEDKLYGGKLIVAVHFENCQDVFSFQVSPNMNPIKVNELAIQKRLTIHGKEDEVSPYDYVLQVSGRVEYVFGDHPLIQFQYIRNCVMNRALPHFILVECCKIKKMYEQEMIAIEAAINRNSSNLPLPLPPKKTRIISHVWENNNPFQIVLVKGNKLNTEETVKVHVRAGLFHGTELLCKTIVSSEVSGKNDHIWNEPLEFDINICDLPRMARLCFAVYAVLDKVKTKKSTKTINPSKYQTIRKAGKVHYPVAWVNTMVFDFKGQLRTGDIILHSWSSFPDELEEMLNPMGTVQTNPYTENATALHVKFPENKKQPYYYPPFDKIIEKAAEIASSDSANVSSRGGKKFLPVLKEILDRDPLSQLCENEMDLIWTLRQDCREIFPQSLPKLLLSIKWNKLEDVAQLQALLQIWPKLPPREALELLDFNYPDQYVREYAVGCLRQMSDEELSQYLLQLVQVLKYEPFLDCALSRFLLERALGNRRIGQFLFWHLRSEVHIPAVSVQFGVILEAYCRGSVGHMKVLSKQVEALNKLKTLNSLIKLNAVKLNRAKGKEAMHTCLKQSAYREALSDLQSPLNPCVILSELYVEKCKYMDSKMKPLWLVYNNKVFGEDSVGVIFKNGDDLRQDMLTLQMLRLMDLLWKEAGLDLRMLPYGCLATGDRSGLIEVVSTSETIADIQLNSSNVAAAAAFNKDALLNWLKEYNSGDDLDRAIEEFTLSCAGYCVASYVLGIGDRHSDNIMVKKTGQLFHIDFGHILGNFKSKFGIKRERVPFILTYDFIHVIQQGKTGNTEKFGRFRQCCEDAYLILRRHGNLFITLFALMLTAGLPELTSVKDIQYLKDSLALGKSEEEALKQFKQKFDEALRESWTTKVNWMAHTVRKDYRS
PIK3CG (human), sequence (P48736 whole entry, looked up): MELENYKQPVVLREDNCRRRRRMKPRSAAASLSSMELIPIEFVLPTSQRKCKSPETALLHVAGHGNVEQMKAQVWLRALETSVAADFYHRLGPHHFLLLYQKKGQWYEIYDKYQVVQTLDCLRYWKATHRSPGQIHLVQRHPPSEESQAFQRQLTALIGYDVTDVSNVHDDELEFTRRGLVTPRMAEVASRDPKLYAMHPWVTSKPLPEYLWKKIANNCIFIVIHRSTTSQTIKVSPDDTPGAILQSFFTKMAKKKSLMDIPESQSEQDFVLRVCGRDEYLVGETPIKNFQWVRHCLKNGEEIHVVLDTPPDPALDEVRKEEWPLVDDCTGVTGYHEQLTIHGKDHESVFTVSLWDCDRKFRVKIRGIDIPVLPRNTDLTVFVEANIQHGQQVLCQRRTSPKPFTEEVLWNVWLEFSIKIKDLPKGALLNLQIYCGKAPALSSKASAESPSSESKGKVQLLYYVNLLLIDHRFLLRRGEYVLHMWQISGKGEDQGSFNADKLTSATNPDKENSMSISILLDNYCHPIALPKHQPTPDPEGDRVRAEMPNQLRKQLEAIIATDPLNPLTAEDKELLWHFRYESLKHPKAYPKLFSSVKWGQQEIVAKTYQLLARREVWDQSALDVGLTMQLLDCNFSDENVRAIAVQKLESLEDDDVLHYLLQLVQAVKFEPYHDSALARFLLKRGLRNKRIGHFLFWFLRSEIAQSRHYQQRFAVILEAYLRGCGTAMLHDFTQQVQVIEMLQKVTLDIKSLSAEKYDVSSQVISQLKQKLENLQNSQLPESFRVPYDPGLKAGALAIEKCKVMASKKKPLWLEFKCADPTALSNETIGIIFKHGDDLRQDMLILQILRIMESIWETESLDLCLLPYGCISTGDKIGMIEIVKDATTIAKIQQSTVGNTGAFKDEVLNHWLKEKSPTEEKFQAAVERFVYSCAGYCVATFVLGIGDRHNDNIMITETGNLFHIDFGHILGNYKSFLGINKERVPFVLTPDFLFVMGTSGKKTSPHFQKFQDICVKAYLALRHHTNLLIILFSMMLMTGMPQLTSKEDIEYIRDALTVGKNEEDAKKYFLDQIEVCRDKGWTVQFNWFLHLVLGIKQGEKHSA
PIK3CA (human), sequence (P42336 whole entry, looked up): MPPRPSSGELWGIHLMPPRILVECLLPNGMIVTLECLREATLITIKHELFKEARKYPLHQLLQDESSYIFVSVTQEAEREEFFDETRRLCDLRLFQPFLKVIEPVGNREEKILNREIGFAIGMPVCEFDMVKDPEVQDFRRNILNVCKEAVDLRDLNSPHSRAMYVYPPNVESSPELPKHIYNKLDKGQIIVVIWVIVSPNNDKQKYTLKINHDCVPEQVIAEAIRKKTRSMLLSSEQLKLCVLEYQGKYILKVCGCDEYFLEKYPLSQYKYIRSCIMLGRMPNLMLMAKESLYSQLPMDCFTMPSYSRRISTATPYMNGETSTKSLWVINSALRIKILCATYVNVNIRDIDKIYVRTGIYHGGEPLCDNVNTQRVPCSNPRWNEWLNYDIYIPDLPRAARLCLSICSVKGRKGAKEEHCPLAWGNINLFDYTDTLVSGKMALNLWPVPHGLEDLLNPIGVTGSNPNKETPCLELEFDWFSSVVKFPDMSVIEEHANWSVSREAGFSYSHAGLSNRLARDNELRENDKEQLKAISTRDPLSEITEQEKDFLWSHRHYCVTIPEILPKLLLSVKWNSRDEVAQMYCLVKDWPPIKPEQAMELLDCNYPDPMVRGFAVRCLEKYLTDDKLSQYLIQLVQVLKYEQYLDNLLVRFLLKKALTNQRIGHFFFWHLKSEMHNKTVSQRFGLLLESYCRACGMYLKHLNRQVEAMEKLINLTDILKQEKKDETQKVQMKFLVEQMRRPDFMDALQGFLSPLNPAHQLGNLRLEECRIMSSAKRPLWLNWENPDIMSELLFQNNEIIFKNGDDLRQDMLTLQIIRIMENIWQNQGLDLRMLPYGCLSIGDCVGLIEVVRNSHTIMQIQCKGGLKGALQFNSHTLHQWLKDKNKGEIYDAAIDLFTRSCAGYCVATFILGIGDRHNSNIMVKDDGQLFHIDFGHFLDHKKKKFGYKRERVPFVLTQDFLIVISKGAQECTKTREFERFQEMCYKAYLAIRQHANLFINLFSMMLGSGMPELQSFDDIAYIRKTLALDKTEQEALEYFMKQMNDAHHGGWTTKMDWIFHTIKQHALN
PIK3CD (Human), sequence (O00329 whole entry, looked up): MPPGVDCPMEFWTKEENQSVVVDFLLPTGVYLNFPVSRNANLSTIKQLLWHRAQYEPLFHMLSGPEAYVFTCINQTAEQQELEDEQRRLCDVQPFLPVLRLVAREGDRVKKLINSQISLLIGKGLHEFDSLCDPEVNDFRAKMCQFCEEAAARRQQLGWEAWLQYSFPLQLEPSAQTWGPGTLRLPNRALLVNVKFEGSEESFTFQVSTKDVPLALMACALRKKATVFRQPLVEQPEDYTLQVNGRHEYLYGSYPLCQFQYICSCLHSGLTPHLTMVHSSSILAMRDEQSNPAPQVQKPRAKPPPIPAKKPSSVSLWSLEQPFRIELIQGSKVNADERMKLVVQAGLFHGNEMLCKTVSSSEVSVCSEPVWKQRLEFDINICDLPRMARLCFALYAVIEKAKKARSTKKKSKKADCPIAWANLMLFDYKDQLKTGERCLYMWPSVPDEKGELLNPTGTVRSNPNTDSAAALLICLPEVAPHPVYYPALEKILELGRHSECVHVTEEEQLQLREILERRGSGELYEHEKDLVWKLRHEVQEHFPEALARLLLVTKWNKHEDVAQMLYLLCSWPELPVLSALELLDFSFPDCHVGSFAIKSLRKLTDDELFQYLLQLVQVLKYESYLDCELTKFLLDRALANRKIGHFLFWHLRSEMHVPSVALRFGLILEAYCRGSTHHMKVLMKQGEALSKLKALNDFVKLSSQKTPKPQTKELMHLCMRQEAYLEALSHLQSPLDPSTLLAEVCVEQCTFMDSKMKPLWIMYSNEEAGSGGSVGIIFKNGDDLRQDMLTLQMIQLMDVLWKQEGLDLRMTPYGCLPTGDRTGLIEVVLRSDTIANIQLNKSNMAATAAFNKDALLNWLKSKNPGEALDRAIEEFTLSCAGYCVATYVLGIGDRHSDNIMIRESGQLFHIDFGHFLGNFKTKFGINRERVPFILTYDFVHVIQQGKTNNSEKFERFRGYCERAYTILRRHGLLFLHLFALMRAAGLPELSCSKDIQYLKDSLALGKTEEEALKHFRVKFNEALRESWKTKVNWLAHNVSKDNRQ

IC50 [1] | IC50 [2] | IC50 [3] | EC50 [4] | EC50 [5] | SMILES
18.7 µM | 1.61 µM | 2.44 µM | 0.584 µM | – | CCC(Nc1ncnc2[nH]cnc12)c1nc2cccc(C)c2c(=O)n1-c1cc(F)cc(F)c1 (centres undefined)
9.73 µM | 1.06 µM | 1.18 µM | 0.084 µM | 0.0046 µM | CCC(Nc1ncnc2[nH]cnc12)c1nc2ccccc2c(=O)n1-c1ccccc1 (centres undefined)
11.2 µM | 1.71 µM | 3.24 µM | 0.298 µM | 0.0307 µM | CCC(Nc1ncnc2[nH]cnc12)c1nc2cccc(Cl)c2c(=O)n1-c1c(F)cccc1F (centres undefined)

SMILES | IC50 [1] | IC50 [2] | IC50 [3] | EC50 [4] | EC50 [5]
CC[C@H](Nc1ncnc2[nH]cnc12)c1nc2cccc(Cl)c2c(=O)n1-c1cc(F)cc(F)c1 | 7.94 µM | 0.804 µM | 0.936 µM | 0.382 µM | 0.0016 µM
